# Source: patent US10765681B2 (Academia Sinica, priority 2016, dated 2020)
# What was measured:
# H1975 lung cancer cells = assay: MTT assay, growth of H1975 lung cancer cells; type: cell-based; details: Homo sapiens, NCI-H1975; H1975 lung cancer cell line; MTT; Table 3; read-out: IC50 H1975
# [1] = test system: MDA-MB231 breast cancer cells; assay: MTT assay, growth of MDA-MB231 breast cancer cells; type: cell-based; details: Homo sapiens, MDA-MB-231, MDA-MB231 triple-negative breast cancer cell line, Table 3
# Method: The inhibitory effect of the exemplary compounds against MDA-MB231 breast cancer cell and H1975 lung cancer cell was evaluated. The cytotoxic activity of test compounds was examined by performing a MTT assay.
Structure (SMILES),IC50 (H1975 lung cancer cells),IC50 [1],melting point
"CCOc1ccc(-c2nc(C(=N)NOC(=O)OCc3ccccc3)c3[nH]c(=O)n(-c4ccccc4OC)c3n2)cc1 [Compound 22a, 2-(4-Ethoxyphenyl)-9-(2-methoxyphenyl)-8-oxopurine-6-[N-(benzyloxycarbonyl)oxy]carboximidamide]",3.1 µM,3.9 µM,246 to 248 °C
"CCOc1ccc(-c2nc(C(=N)NOC(=O)Oc3ccccc3)c3[nH]c(=O)n(-c4ccccc4OC)c3n2)cc1 [Compound 22b, 2-(4-Ethoxyphenyl)-9-(2-methoxyphenyl)-8-oxopurine-6-[N-(phenoxycarbonyl)oxy]carboximidamide]",3.1 µM,3.9 µM,209 to 211 °C
"C=CCn1c(=O)n(-c2ccccc2OC)c2nc(-c3ccc(OCC)cc3)nc(C(=N)NOC(=O)Oc3ccccc3)c21 [Compound 23a, 7-Allyl-2-(4-ethoxyphenyl)-9-(2-methoxyphenyl)-8-oxopurine-6-[N-(phenoxycarbonyl)oxy]carboximidamide]",51.1 µM,48.1 µM,83 to 85 °C
"CCOc1ccc(-c2nc(-c3noc(C)n3)c3[nH]c(=O)n(-c4ccccc4OC)c3n2)cc1 [Compound 24a, 2-(4-Ethoxyphenyl)-9-(2-methoxyphenyl)-6-(5-methyl-1,2,4-oxadiazol-3-yl)purin-8-one]",17 µM,64 µM,291 to 293 °C
"CCOc1ccc(-c2nc(C(=O)O)c3nc(S)n(-c4ccccc4)c3n2)cc1 [Compound 29a, 2-(4-Ethoxyphenyl)-8-mercapto-9-phenylpurine-6-carboxylic acid]",43.6 µM,91 µM,320 °C (dec.)

# The next lines start with the values.
IC50 (H1975 lung cancer cells),IC50 [1],melting point,Structure (SMILES)
0.7 µM,1.6 µM,215 to 217 °C,"CCOc1ccc(-c2nc(C#N)c3nc(Cl)n(-c4ccccc4OC)c3n2)cc1 [Compound 31a, 8-Chloro-2-(4-ethoxyphenyl)-9-(2-methoxyphenyl)purine-6-carbonitrile]"
14.7 µM,11.9 µM,210 to 212 °C,"CCOc1ccc(-c2nc(C#N)c3nc(N(C(C)=O)C(C)=O)n(-c4ccccc4OC)c3n2)cc1 [Compound 35a, N-Acetyl-N-[6-cyano-2-(4-ethoxyphenyl)-9-(2-methoxyphenyl)purin-8-yl]acetamide]"
11.9 µM,15.4 µM,245 to 247 °C,"CCOc1ccc(-c2nc(C(=N)NO)c3nc(N)n(-c4ccccc4OC)c3n2)cc1 [Compound 36a, 8-Amino-2-(4-ethoxyphenyl)-9-(2-methoxyphenyl)purine-6-(N-hydroxy)carboximidamide]"
